Source: the supplement of paper PMC10307832

What was measured:
Experiment in all cases: relative viability (nuclei count vs DMSO), 5 days (fraction); higher = more cells survive
IU1-47 + Crizotinib = compound: CC1=CC(=C(N1C2=CC=C(C=C2)Cl)C)C(=O)CN3CCCCC3 [IU1-47] + C[C@@H](Oc1cc(-c2cnn(C3CCNCC3)c2)cnc1N)c1c(Cl)ccc(F)c1Cl [Crizotinib] (partner 1 µM)
Summary of the method: (§1)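 Nuclei were stained with Hoechst during a one-step fixation (final 0.05% Triton X-100, 1% formaldehyde, 1 ug/ml Hoechst) carried out 5 days after dosing, then counted on 4× images. The cells, lung cancer lines in 1536-well plates, had been dosed by pin tool the day after seeding with one drug alone or a fixed anchor-drug dose plus five library-drug doses (not always all listed) in √10 steps. Relative viability is the nuclei count in treated wells divided by that in vehicle wells, and each value is the median of duplicate plates.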

FG-4592 + Palbociclib = compound: Cc1nc(C(=O)NCC(=O)O)c(O)c2ccc(Oc3ccccc3)cc12 [FG-4592] + CC(=O)c1c(C)c2cnc(Nc3ccc(N4CCNCC4)cn3)nc2n(C2CCCC2)c1=O [Palbociclib] (partner 0.5 µM)
Summary of the method: as §1

IU1-47 + Linsitinib = compound: CC1=CC(=C(N1C2=CC=C(C=C2)Cl)C)C(=O)CN3CCCCC3 [IU1-47] + C[C@]1(O)C[C@@H](c2nc(-c3ccc4ccc(-c5ccccc5)nc4c3)c3c(N)nccn32)C1 [Linsitinib] (partner 1 µM)
Summary of the method: as §1

FG-4592 + Decitabine = compound: Cc1nc(C(=O)NCC(=O)O)c(O)c2ccc(Oc3ccccc3)cc12 [FG-4592] + Nc1ncn([C@H]2C[C@H](O)[C@@H](CO)O2)c(=O)n1 [Decitabine] (partner 2 µM)
Summary of the method: as §1

Cell Line | relative viability (IU1-47 + Crizotinib; first compound 0.08 µM) | relative viability (IU1-47 + Crizotinib; first compound 0.253 µM) | relative viability (IU1-47 + Crizotinib; first compound 0.8 µM) | relative viability (IU1-47 + Crizotinib; first compound 2.53 µM) | relative viability (IU1-47 + Crizotinib; first compound 8 µM) | relative viability (FG-4592 + Palbociclib; first compound 0.08 µM) | relative viability (FG-4592 + Palbociclib; first compound 0.253 µM) | relative viability (FG-4592 + Palbociclib; first compound 0.8 µM) | relative viability (FG-4592 + Palbociclib; first compound 2.53 µM) | relative viability (FG-4592 + Palbociclib; first compound 8 µM) | relative viability (IU1-47 + Linsitinib; first compound 0.08 µM) | relative viability (IU1-47 + Linsitinib; first compound 0.253 µM) | relative viability (IU1-47 + Linsitinib; first compound 0.8 µM) | relative viability (IU1-47 + Linsitinib; first compound 2.53 µM) | relative viability (IU1-47 + Linsitinib; first compound 8 µM) | relative viability (FG-4592 + Decitabine; first compound 0.08 µM) | relative viability (FG-4592 + Decitabine; first compound 0.8 µM) | relative viability (FG-4592 + Decitabine; first compound 2.53 µM) | relative viability (FG-4592 + Decitabine; first compound 8 µM) | relative viability (FG-4592 + Decitabine; first compound 0.253 µM)
HCC-78 | 0.334 | 0.358 | 0.336 | 0.324 | 0.386 | 0.468 | 0.486 | 0.465 | 0.453 | 0.438 | 0.555 | 0.506 | 0.521 | 0.474 | 0.417 | 0.666 | 0.694 | 0.652 | 0.562 | –
HCC-366 | 0.38 | 0.633 | 0.562 | – | 0.393 | 0.365 | 0.367 | 0.311 | 0.437 | 0.291 | 0.698 | 0.643 | 0.951 | – | 0.567 | 0.359 | 0.324 | 0.383 | 0.308 | 0.347
HCC-827 | 0.89 | 0.955 | 1.01 | 0.961 | 0.904 | 0.438 | 0.417 | 0.402 | 0.507 | 0.467 | 0.99 | 0.92 | 0.941 | 1.01 | 0.963 | 0.376 | 0.319 | 0.334 | 0.328 | 0.28
HOP-62 | 0.918 | 0.873 | 0.901 | 0.441 | 0.971 | 0.393 | 0.439 | 0.365 | 0.407 | 0.37 | 0.98 | 1.04 | 0.805 | 0.677 | 0.886 | 0.216 | 0.223 | 0.199 | 0.185 | 0.219
IA-LM | – | 0.974 | 0.942 | 1.1 | 0.644 | – | – | – | – | – | 0.526 | 0.407 | 0.655 | 0.741 | 0.604 | – | – | – | – | –
LC-2-ad | 0.412 | 0.444 | 0.434 | 0.572 | 0.41 | 0.473 | 0.456 | 0.515 | 0.549 | 0.476 | 0.863 | 0.91 | 0.845 | 0.853 | 0.918 | 0.804 | 0.755 | 0.853 | 0.837 | 0.66
LCLC-97TM1 | 0.461 | 0.339 | 0.458 | – | 0.323 | 0.254 | 0.215 | – | 0.181 | 0.191 | 0.177 | 0.228 | 0.168 | – | 0.175 | 0.218 | – | 0.217 | 0.173 | 0.209
LCLC-103H | 1.15 | 1.06 | 1.06 | 1.05 | 1.09 | 0.474 | 0.408 | 0.414 | 0.467 | 0.454 | 1.07 | 1.07 | 1.18 | 1.07 | 1.3 | 0.773 | 0.664 | 0.741 | 0.66 | 0.747
LK-2 | 0.204 | 0.223 | 0.223 | 0.213 | 0.255 | 0.521 | 0.656 | – | 0.679 | 0.599 | 0.742 | 0.697 | 0.592 | 0.335 | 0.416 | 0.273 | 0.274 | 0.371 | 0.295 | 0.272
